Results on 29 molecules are retold here after patent US7015236B2, “N-heteroarylnicotinamide derivatives” (Sankyo Agro Company, Limited, priority 2001, dated 2006).

The structures appear in SMILES notation. Read-outs that look alike come from different tables or passages of the source.

Assay [1] relates to green peach aphid (Myzus persicae). Kind of assay: Insecticidal test for green peach aphid (100 ppm), Test Example 1. The assay is classed as in vivo. To be noted: 120 h. As to the method: Insecticidal test for green peach aphid (Myzus persicae) (100 ppm)
(§1) Water (30 ml) was put into a beaker, and a leaf of Komatsuna (Brassica var. rapa) was placed within the beaker such that the stem was immersed in water. On the leaf of Komatsuna, five green peach aphids were released and allowed to fertilize. Two days after the releasing, imagoes were removed and the number of larvae was counted.
(§2) A surfactant Newcol NE-710F (trademark, produced by Nippon Nyukazai Co., Ltd., 2%) was dissolved in aqueous acetone (95% aqueous solution, 98%) to prepare solution 1. Next, a dispersant Gousenol GLO5-S (trademark, produced by Nippon Nyukazai Co., Ltd., 0.2% aqueous solution, 0.2%) was dissolved in water (99.8%) to prepare solution 2.
(§3) To each of the compounds (8 mg) of the present invention, the above solution 1 (0.4 ml), the above solution 2 (0.4 ml) and water (8 ml) were added. Further, the compounds of the present invention were each diluted with water so that the concentration of each compound was 100 ppm {as a spreading agent, Gramin S (trademark, produced by Sankyo Co., Ltd.) was added so as to have a concentration of 0.01%}.
(§4) The above chemical liquid (8 ml) was sprayed on the leaf of Komatsuna by use of a rotary spraying tower. The leaf of Komatsuna was put back in the beaker. Then, the beaker was placed in a thermostatic chamber of 25° C. for 16 hours in the light and for 8 hours in the dark. 5 Days after the spraying, the number of dead insects was counted to calculate the mortality (%).

Assay [2] shares this test system. Kind of assay: Insecticidal test for green peach aphid (10 ppm and 3 ppm), Test Example 2. It counts as in vivo. To be noted: same manner as Test Example 1; for mortality at 3 ppm: Chemical concentration of spray 3 ppm; for mortality at 10 ppm: Chemical concentration of spray 10 ppm. As to the method:
as §1, §2, §3, §4
Insecticidal Test for Green Peach Aphid (Myzus persicae) (10 ppm and 3 ppm)
The test was carried out in the same manner as in Test Example 1 except for setting the dilution concentration to 10 ppm and 3 ppm. Incidentally, Comparative Compound a and Comparative Compound b (Compound No. 6) listed in Table 1 of Japanese Provisional Patent Publication No. Hei 10-195072 were used as a comparison. [drawing 25]

The mark [3] stands for this setting: 100 ppm spray on Komatsuna leaf, larvae, counted 5 days after spraying, 25° C., read-out: mortality (%).

The mortality is the percentage killed.

Turning to `Cc1cc(NC(=O)c2cnccc2C(F)(F)F)on1` [Example 1, N-(3-Methyl-5-isoxazolyl)-4-(trifluoromethyl)nicotinamide], the mortality at 100 ppm in assay [1] (setting [3]) is at least 95%. In assay [2], this molecule displayed a mortality at 3 ppm of 100% and a mortality at 10 ppm of 100%.

Take `O=C(c1cnccc1C(F)(F)F)N(C(=O)c1cnccc1C(F)(F)F)c1ccno1` [Example 30, 5-[N,N-Bis(4-trifluoromethylnicotinoyl)]aminoisoxazole]: the mortality at 100 ppm in assay [1] (setting [3]) was at least 95%.

As for `Cc1ccc(-c2cnoc2NC(=O)c2cnccc2C(F)(F)F)cc1` [Example 54, N-[4-(4-Methylphenyl)-5-isoxazolyl]-4-(trifluoromethyl)nicotinamide], in assay [1] (setting [3]), the mortality at 100 ppm is at least 95%.

Regarding `O=C(Nc1oncc1C1CCC1)c1cnccc1C(F)(F)F` [Example 41, N-(4-Cyclobutyl-5-isoxazolyl)-4-(trifluoromethyl)nicotinamide], the mortality at 100 ppm in assay [1] (setting [3]) is at least 95%.

As for `O=C(Nc1oncc1-c1ccc(C(F)(F)F)cc1)c1cnccc1C(F)(F)F` [Example 57, N-[4-(4-Trifluoromethylphenyl)-5-isoxazolyl]-4-(trifluoromethyl)nicotinamide], in assay [1] (setting [3]), the mortality at 100 ppm is at least 95%.

On to `C=CCc1cnoc1NC(=O)c1cnccc1C(F)(F)F` [Example 38, N-(4-Allyl-5-isoxazolyl)-4-(trifluoromethyl)nicotinamide], for which the mortality at 100 ppm in assay [1] (setting [3]) was at least 95%.

`Cc1noc(NC(=O)c2cnccc2C(F)(F)F)c1-c1ccccc1` [Example 61, N-(3-Methyl-4-phenyl-5-isoxazolyl)-4-(trifluoromethyl)nicotinamide]: in assay [1] (setting [3]), the mortality at 100 ppm is at least 95%.

Consider `O=C(Nc1oncc1C1CC1)c1cnccc1C(F)(F)F` [Example 37, N-(4-Cyclopropyl-5-isoxazolyl)-4-(trifluoromethyl)nicotinamide], for which the mortality at 100 ppm in assay [1] (setting [3]) is at least 95%.

As to `CC(C)c1cnoc1NC(=O)c1cnccc1C(F)(F)F` [Example 36, N-(4-Isopropyl-5-isoxazolyl)-4-(trifluoromethyl)nicotinamide], the mortality at 100 ppm in assay [1] (setting [3]) is at least 95%.

For `N#Cc1noc(NC(=O)c2cnccc2C(F)(F)F)c1Cl` [Example 22, N-(4-Chloro-3-cyano-5-isoxazolyl)-4-(trifluoromethyl)nicotinamide], the mortality at 100 ppm in assay [1] (setting [3]) was at least 95%.

Consider `CCOC(OCC)c1cc(NC(=O)c2cnccc2C(F)(F)F)on1` [Example 26, N-(3-Diethoxymethyl-5-isoxazolyl)-4-(trifluoromethyl)nicotinamide], for which the mortality at 100 ppm in assay [1] (setting [3]) was at least 95%.

`CCOC(=O)c1cc(NC(=O)c2cnccc2C(F)(F)F)on1` [Example 29, N-(3-Ethoxycarbonyl-5-isoxazolyl)-4-(trifluoromethyl)nicotinamide]: the mortality at 100 ppm in assay [1] (setting [3]) was at least 95%.

With `O=C(Nc1oncc1Cc1ccccc1)c1cnccc1C(F)(F)F` [Example 45, N-(4-Benzyl-5-isoxazolyl)-4-(trifluoromethyl)nicotinamide], in assay [1] (setting [3]), the mortality at 100 ppm was at least 95%.

Take `COCc1cc(NC(=O)c2cnccc2C(F)(F)F)on1` [Example 10, N-(3-Methoxymethyl-5-isoxazolyl)-4-(trifluoromethyl)nicotinamide]: the mortality at 100 ppm in assay [1] (setting [3]) was at least 95%.

Turning to `O=C(Nc1oncc1Br)c1cnccc1C(F)(F)F` [Example 24, N-(4-Bromo-5-isoxazolyl)-4-(trifluoromethyl)nicotinamide], the mortality at 100 ppm in assay [1] (setting [3]) was at least 95%.

With `O=C(Nc1nncs1)c1cnccc1C(F)(F)F` [Comparative Compound b, reference compound], in assay [2], the mortality at 3 ppm amounted to 0% and the mortality at 10 ppm amounted to 0%.

As to `CCc1cc(NC(=O)c2cnccc2C(F)(F)F)on1` [Example 5, N-(3-Ethyl-5-isoxazolyl)-4-(trifluoromethyl)nicotinamide], the mortality at 100 ppm in assay [1] (setting [3]) was at least 95%.

`O=C(Nc1cc(C=NO)no1)c1cnccc1C(F)(F)F` [Example 8, N-(3-Hydroxyiminomethyl-5-isoxazolyl)-4-(trifluoromethyl)nicotinamide] gave a mortality at 100 ppm in assay [1] of at least 95%.

Regarding `O=C(Nc1oncc1-c1cccnc1)c1cnccc1C(F)(F)F` [Example 59, N-[4-(3-Pyridyl)-5-isoxazolyl]-4-(trifluoromethyl)nicotinamide], the mortality at 100 ppm in assay [1] (setting [3]) is at least 95%.

As to `O=C(Nc1oncc1-n1cccn1)c1cnccc1C(F)(F)F` [Example 64, N-[4-(1H-Pyrazol-1-yl)-5-isoxazolyl]-4-(trifluoromethyl)nicotinamide], the mortality at 100 ppm in assay [1] (setting [3]) is at least 95%.

As to `COCc1noc(NC(=O)c2cnccc2C(F)(F)F)c1Cl` [Example 13, N-(4-Chloro-3-methoxymethyl-5-isoxazolyl)-4-(trifluoromethyl)nicotinamide], the mortality at 100 ppm in assay [1] (setting [3]) was at least 95%.

Take `O=C(Nc1ccno1)c1cnccc1C(F)(F)F` [Example 4, N-(5-Isoxazolyl)-4-(trifluoromethyl)nicotinamide]: the mortality at 100 ppm in assay [1] (setting [3]) is at least 95%. In addition, in assay [2], the mortality at 3 ppm stood at 100% and the mortality at 10 ppm stood at 100%.

On to `O=C(Nc1oncc1-c1ccc(Cl)cc1)c1cnccc1C(F)(F)F` [Example 56, N-[4-(4-Chlorophenyl)-5-isoxazolyl]-4-(trifluoromethyl)nicotinamide], for which the mortality at 100 ppm in assay [1] (setting [3]) is at least 95%.

Take `Cc1cc(N(C)C(=O)c2cnccc2C(F)(F)F)on1` [Example 16, N-Methyl-N-(3-methyl-5-isoxazolyl)-4-(trifluoromethyl)nicotinamide]: the mortality at 100 ppm in assay [1] (setting [3]) is at least 95%.

Consider `Cc1noc(NC(=O)c2cnccc2C(F)(F)F)c1Br` [Example 14, N-(4-Bromo-3-methyl-5-isoxazolyl)-4-(trifluoromethyl)nicotinamide], for which, in assay [1] (setting [3]), the mortality at 100 ppm is at least 95%.

`CCOCN(C(=O)c1cnccc1C(F)(F)F)c1cc(C)no1` [Example 2, N-Ethoxymethyl-N-(3-methyl-5-isoxazolyl)-4-(trifluoromethyl)nicotinamide]: the mortality at 100 ppm in assay [1] (setting [3]) was at least 95%.

For the molecule `Cc1cnc(NC(=O)c2cnccc2C(F)(F)F)s1` [Comparative Compound a, reference compound], in assay [2], the mortality at 3 ppm stood at 0% and the mortality at 10 ppm came to 6%.

`COCc1cnoc1NC(=O)c1cnccc1C(F)(F)F` [Example 63, N-(4-Methoxymethyl-5-isoxazolyl)-4-(trifluoromethyl)nicotinamide]: the mortality at 100 ppm in assay [1] (setting [3]) was at least 95%.

Consider `Cc1noc(NC(=O)c2cnccc2C(F)(F)F)c1C` [Example 33, N-(3,4-Dimethyl-5-isoxazolyl)-4-(trifluoromethyl)nicotinamide], for which, in assay [1] (setting [3]), the mortality at 100 ppm was at least 95%.
